Measurements: patent publication US20260166162A1, “CARBON CHAIN SUBSTANCE FOR REGULATING TRANSMEMBRANE TRANSPORT AND FLUIDITY OF CELL MEMBRANES, AND PREPARATION AND USE THEREOF” (priority 2022, published 2026)
Read-outs that look alike come from different tables or passages of the source.

Assays:
Format in all cases: cell-based
HIV pseudovirus (18A-41) = conditions: 293T cells pretreated 4 h, n=3
human pancreatic β-cells = experiment: Insulin secretion from human islet β cells (ELISA of supernatant); conditions: 6 h
Epithelial cells = experiment: Interaction of GFP-labelled complexes with cell membrane of epithelial cells (Example II-52, Table II-30); conditions: GFP-labelled complex, epithelial cells pretreated 4 hours, n=3
Description: The fatty acids were combined with water-soluble small molecules to form a complex, which were labeled with GFP fluorescence to detect cell membrane fluorescence. […] After the cells were stably adhered, the water-soluble fatty acid complexes in the following table were added to the cell culture medium. […] The medium with the drug was pipetted and replaced with normal DMEM medium. […] The green fluorescence intensity was analyzed by imageJ (see Table II-30, n=3).

293T cells = experiment: Cellular phagocytosis of DiD-loaded lipid vesicles (nano-drugs) by 293T cells (Example II-51, Table II-29); conditions: 293T cells pretreated 4 h, DiD lipid vesicles 2 h, n=3, untreated control 226.46 ± 1.26
[1] = tested on: SARS-CoV-2 pseudovirus (B.1.526.2); conditions: n=3
[2] = 100 μM, negative value = promotes infection

CCC=CCC=CCC=CCC=CCC=CCCCC(=O)OCC(O)C1OC(=O)C(O)=C1O (stereo not drawn) [Ascorbic Acid-EPA]
Inhibition rate (%) (HIV pseudovirus (18A-41); 2 nM): 72.04 ± 6.02%
Inhibition rate (%) (HIV pseudovirus (18A-41); 5 nM): 68.76 ± 5.79%
Inhibition rate (%) (HIV pseudovirus (18A-41); 10 nM): 86.46 ± 3.84%
Inhibition rate (%) (HIV pseudovirus (18A-41); 50 nM): 97.33 ± 5.33%
Inhibition rate (%) (HIV pseudovirus (18A-41); 100 nM): 98.77 ± 3.22%
Inhibition rate (%) (HIV pseudovirus (18A-41); 1 μM): -82.83 ± 7.59%
Inhibition rate (%) (HIV pseudovirus (18A-41); 10 μM): -64.54 ± 5.62%
Inhibition rate (%) (HIV pseudovirus (18A-41); 50 μM): 80.74 ± 4.76%
Inhibition rate (%) (HIV pseudovirus (18A-41); [2]): 82.84 ± 4.75%

CCCCCCCC/C=C\CCCCCCCC(=O)OCCO [Ethylene glycol-OA]
Inhibition rate (%) (HIV pseudovirus (18A-41); 2 nM): 82.74 ± 5.06%
Inhibition rate (%) (HIV pseudovirus (18A-41); 5 nM): 83.09 ± 3.25%
Inhibition rate (%) (HIV pseudovirus (18A-41); 10 nM): 89.89 ± 4.06%
Inhibition rate (%) (HIV pseudovirus (18A-41); 50 nM): 94.33 ± 6.32%
Inhibition rate (%) (HIV pseudovirus (18A-41); 100 nM): 93.46 ± 3.23%
Inhibition rate (%) (HIV pseudovirus (18A-41); 1 μM): -92.33 ± 2.66%
Inhibition rate (%) (HIV pseudovirus (18A-41); 10 μM): -84.04 ± 6.24%
Inhibition rate (%) (HIV pseudovirus (18A-41); 50 μM): 79.46 ± 8.46%
Inhibition rate (%) (HIV pseudovirus (18A-41); [2]): 86.47 ± 5.86%

NC(CCCCNC(=O)CCCCCCCCCCCCCCCCCCC(=O)O)C(=O)O (stereo not drawn) [Lys-eicosanedioic acid]
Insulin (human pancreatic β-cells; 2 nM): 0.34 ng/mL
Insulin (human pancreatic β-cells; 5 nM): 0.35 ng/mL
Insulin (human pancreatic β-cells; 10 nM): 0.42 ng/mL
Insulin (human pancreatic β-cells; 50 nM): 0.48 ng/mL
Insulin (human pancreatic β-cells; 50 μM): 1.44 ng/mL
Insulin (human pancreatic β-cells; 100 μM): 1.48 ng/mL

CCCCCCCCCC(=O)NCCCCC(N)C(=O)O (stereo not drawn) [Lys-n-decanoic acid]
Insulin (human pancreatic β-cells; 2 nM): 0.45 ng/mL
Insulin (human pancreatic β-cells; 5 nM): 0.47 ng/mL
Insulin (human pancreatic β-cells; 10 nM): 0.56 ng/mL
Insulin (human pancreatic β-cells; 50 nM): 0.60 ng/mL
Insulin (human pancreatic β-cells; 50 μM): 1.53 ng/mL
Insulin (human pancreatic β-cells; 100 μM): 1.63 ng/mL

CCCC(=O)OCC(N)C(=O)O (stereo not drawn) [Ser-n-butyric acid]
Insulin (human pancreatic β-cells; 2 nM): 0.41 ng/mL
Insulin (human pancreatic β-cells; 5 nM): 0.39 ng/mL
Insulin (human pancreatic β-cells; 10 nM): 0.49 ng/mL
Insulin (human pancreatic β-cells; 50 nM): 0.53 ng/mL
Insulin (human pancreatic β-cells; 50 μM): 1.42 ng/mL
Insulin (human pancreatic β-cells; 100 μM): 1.51 ng/mL

CCCCCCCCCCCCCCCCCC(=O)OCC(N)C(=O)O (stereo not drawn) [Ser-stearic acid]
Insulin (human pancreatic β-cells; 2 nM): 0.28 ng/mL
Insulin (human pancreatic β-cells; 5 nM): 0.30 ng/mL
Insulin (human pancreatic β-cells; 10 nM): 0.41 ng/mL
Insulin (human pancreatic β-cells; 50 nM): 0.48 ng/mL
Insulin (human pancreatic β-cells; 50 μM): 1.38 ng/mL
Insulin (human pancreatic β-cells; 100 μM): 1.41 ng/mL

CCCCCCCCCCCCCCCCCCCC(=O)OC(C)C(N)C(=O)O (stereo not drawn) [Thr-arachidic acid]
Insulin (human pancreatic β-cells; 2 nM): 0.32 ng/mL
Insulin (human pancreatic β-cells; 5 nM): 0.31 ng/mL
Insulin (human pancreatic β-cells; 10 nM): 0.43 ng/mL
Insulin (human pancreatic β-cells; 50 nM): 0.51 ng/mL
Insulin (human pancreatic β-cells; 50 μM): 1.46 ng/mL
Insulin (human pancreatic β-cells; 100 μM): 1.42 ng/mL
Mean fluorescence intensity (Epithelial cells; 0 Hours after medium replaced): 109.4 ± 3.7
Mean fluorescence intensity (Epithelial cells; 2 Hours after medium replaced): 104.4 ± 5.4
Mean fluorescence intensity (Epithelial cells; 4 Hours after medium replaced): 91.5 ± 6.7
Mean fluorescence intensity (Epithelial cells; 8 Hours after medium replaced): 54.3 ± 7.2
Mean fluorescence intensity (Epithelial cells; 12 Hours after medium replaced): 41.4 ± 3.4
Mean fluorescence intensity (Epithelial cells; 24 Hours after medium replaced): 34.2 ± 5.2

CCCCCC(=O)OC(C)C(N)C(=O)O (stereo not drawn) [Thr-n-hexanoic acid]
Insulin (human pancreatic β-cells; 2 nM): 0.38 ng/mL
Insulin (human pancreatic β-cells; 5 nM): 0.37 ng/mL
Insulin (human pancreatic β-cells; 10 nM): 0.47 ng/mL
Insulin (human pancreatic β-cells; 50 nM): 0.54 ng/mL
Insulin (human pancreatic β-cells; 50 μM): 1.41 ng/mL
Insulin (human pancreatic β-cells; 100 μM): 1.46 ng/mL

CCCCCC=CCC=CCCCCCCCC(=O)OC(C)C(N)C(=O)O (stereo not drawn) [Threonine-LA]
Fluorescence intensity (293T cells; 2 nM): 100.46 ± 4.23
Fluorescence intensity (293T cells; 5 nM): 64.18 ± 0.47
Fluorescence intensity (293T cells; 10 nM): 43.39 ± 0.55
Fluorescence intensity (293T cells; 50 nM): 45.68 ± 0.23
Fluorescence intensity (293T cells; 100 nM): 54.37 ± 0.63
Fluorescence intensity (293T cells; 1 uM): 412.90 ± 0.43
Fluorescence intensity (293T cells; 10 uM): 507.63 ± 0.23
Fluorescence intensity (293T cells; 50 uM): 64.86 ± 0.19
Fluorescence intensity (293T cells; 100 uM): 27.22 ± 0.16
Inhibition rate (%) ([1]; 2 nM): 55.64 ± 1.68%
Inhibition rate (%) ([1]; 5 nM): 71.66 ± 2.98%
Inhibition rate (%) ([1]; 10 nM): 80.84 ± 4.59%
Inhibition rate (%) ([1]; 50 nM): 79.83 ± 8.55%
Inhibition rate (%) ([1]; 100 nM): 75.99 ± 2.66%
Inhibition rate (%) ([1]; 1 μM): -82.33 ± 0.87%
Inhibition rate (%) ([1]; 10 μM): -124.16 ± 0.47%
Inhibition rate (%) ([1]; 50 μM): 71.36 ± 0.48%
Inhibition rate (%) ([1]; 100 μM): 87.98 ± 0.55%
